# Patent publication US20080300299A1, “Application of Eriocalyxin B in the Manufacture of Medicaments For Treating Leukemia” (Rui Jin Hospital Affiliated to Shanghai Second Medical …, priority 2005, published 2008)
# Several values for one entry are separate records, joined by “and”; a condition that tells them apart may be missing. Identical values can stand only once.
# Key:
# HL60 cells = assay: MTT cell growth inhibition; format: cell-based, human; details: 72 hours
# Description: (§1) (III) MTT experiment: cells were treated with EriB at concentrations of 0.1, 0.25, 0.5, 1, 2, 4, 6, 8 and 10 μM in a 96-hole plate. After 72 hours, 0.1 mg MTT was added to each hole, incubated at 37° C. for four hours later, absorbance values were measured at 570 nm by spectrophotometer.
# Bcl-XL = assay: Western blot and RT-PCR of Bcl-XL in Kasumi-1 cells; format: cell-based, human; details: EriB 24 and 48 hours
# Description: (§2) (VII) Western Blot analysis: lysing 5×10^6 cells with 200 μl Laemmli lysis buffer (0.5M Tris-HCl, pH 6.8, 2 mM EDTA, 10% glycerol, 2% SDS and 5% β-mercaptoethanol). Protein lysate (20 μg) was used on 10% polyacrylamide gel electrophoresis, and then transferred to nitrocellulose membranes. Nitrocellulose membranes were blocked with TBS/0.05% Tween 20 5% skim (nonfat) milk, and afterwards, incubated with primary antibody for two hours at room temperature, and incubated with horseradish peroxidase labeled IgG for one hour. The Immunocomplexes were detected with chemiluminescence horseradish peroxidase detection kit. The signal intensities of the respective bands were analyzed with Quantity One version 4.1.1 software.
# (§3) (IX) Semi-quantitative reverse transcription-PCR (RT-PCR): the total RNA was extracted using Trizol (Invitrogen). Random hexamers and Superscript II (Invitrogen) ART were used for reverse transcribed into cDNA. The present invention utilized the following primers: […]
# Kasumi-1 cells [1] = assay: Cell survival (trypan blue dye-exclusion); format: cell-based, human; details: 48 hours
# Excerpt: (§4) (II) Cell culture, cell survival and cell morphology: the present invention utilized the following human cell lines: AML leukemia with t(8;21) chromosomal translocation Kasumi-1 cell lines, which is also known as acute myeloid leukemia comprising AML1-ETO fusion gene; acute promyelocytic leukemia NB4, NB4/R1 and NB4/R2 cell lines, and acute myeloid leukemia U937 cell lines; Burkitt's lymphoma (Raji and Daudi) cell lines; T-cell acute lymphoblastic leukemia (Jurkat) cell lines. The present invention studied by collecting primary leukemia cells from five AML patients with t(8;21). The diagnoses of patients were established on the bases of morphological examination, cytogenetics study detection of t(8;21) chromosomal translocation, and RT-PCR detection of AML1-ETO fusion protein. Leukemia cells were prepared in the following conditions: separated with Lymphocyte Separation Medium, further isolated and cultured in RPMI-1640 medium (Gibco/BRL), in addition, added 10% FBS (PAA) in 5% CO2-95% air and saturated humidity, and at 37° C. In each experiment, cell inoculation density is 2×10^5/ml. The survival rate of cells was accessed using trypan blue dye-exclusion experiments. Cell observations were done by using the Wright's staining method.
# AP-1 = AP-1 luciferase report assay in Kasumi-1 cells; format: cell-based, human; details: 0.5 μM EriB for 4 hours
# Description: (§5) (X) Luciferase report assay: Kasumi-1 cells were resuspended in cultured medium, added the gene vector [10 μg, NF-κB-mediated luciferase reporter plasmid or pAP1-luc (Clontech), and 2 μg of β-galactosidase enzyme expression plasmid for correcting cell transfection efficiency of the CMV-mediated. Cell transfection conditions were: 1000V, 25 μF, and the instrument came from the Bio-Rad Laboratories, Inc. Transfections after 36 hours, the cells were treated with EriB and/or TNFα, and then the cells were lysed. Luciferase activity was measured by lumat LB 9507 tube luminometer (EG&G Berthold). Cell lysates were mixed with 2×β-half-galactosidase reaction reagents, after incubated for one hour at 37° C., the termination of reaction by adding 1 M Na2CO3. The β-galactosidase enzyme absorbance values were measured at 420 nm by spectrophotometer.
# AML1-ETO fusion protein = assay: Western blot of AML1-ETO (anti-ETO antibody) in Kasumi-1 cells; format: cell-based, human; details: EriB 24 and 48 hours
# Description: as §2
# caspase-3 = assay: Western blot of caspase-3 activation and PARP; format: cell-based, human; details: EriB; Kasumi-1, NB4 and NB4/R2 cells
# Kasumi-1 cells [2] = assay: ROS level flow cytometry; format: cell-based, human
# Description: (§6) (IV) Flow cytometric for annexin-V, cell cycle, mitochondrial transmembrane potential and reactive oxygen species (ROS) generation: Cell apoptosis was analyzed using an ApoAlert Annexin V-FITC Apoptosis kit (BD). In the process of analyzing the cell cycle, the cells were fixed overnight in methanol at −20° C., followed by treatment of Tris-HCl buffer (pH 7.4) comprising 1% RNase, 50 μg/ml PI staining. In the detection of mitochondrial transmembrane potential, the cells were washed with PBS, incubated at 37° C. and with […] Rh123 for 30 minutes, and then staining with 50 μg/ml PI. DCFH-DA was used to detect ROS levels, thus the cells were washed with PBS, and incubated at 37° C. and with […] DCFH-DA for 30 minutes. Fluorescence intensity was measured by flow cytometry.
# [3] = test system: MigA/Etr cells expressing C-terminal truncated AML1-ETO; assay: C57 murine model of t(8;21) leukemia; format: in vivo, mice; details: for median survival time: control 25 days, P<0.001
# Description: (XII) Leukemia murine model: female C57 mice and nude mice (5-6 weeks) were bred in special pathogen-free environment. C57 mice received 400 cGy from a high-energy linear accelerator at the dose rate of 100 cGy per minute. After 24 hours, the C57 mice were injected with 3×10^6 Mig/Etr cells expressing carbon-terminal truncated AML1-ETO of 0.2 ml PBS via tail vein intravenous injection. Treatments (12 mice in each group) were started five days after injection of leukemia cells. The control group and the EriB treated group, all respectively receive EriB (1.25, or 2.5 mg/kg, intraperitoneal injection for two weeks) and diluents (1% Pluronic F68).
# EriB efficacy in the treatment of murine models. C57 mice were irradiated by lethal dose (LD)50 and injected via tail vein intravenously with 3×10^6 MigA/Etr cells expressing of C-terminal truncated AML1-ETO (day 0). Beginning on day 5, intraperitoneal injection of EriB ([…]) for two weeks. The overall survival rate was measured and calculated started from day 0 to the date of death. All the mice eventually develop symptoms of anemia and difficulty breathing, and also the occurrence of a large number of primitive blood cells in the peripheral blood.
# NB4/R2 cells = assay: MTT cell growth inhibition; format: cell-based, human; details: 72 hours
# Excerpt: as §4, §1
# Jurkat cells = assay: MTT cell growth inhibition; format: cell-based, human; details: 72 hours
# Excerpt: as §4, §1
# NB4 cells = assay: MTT cell growth inhibition; format: cell-based, human; details: 72 hours
# Excerpt: as §4, §1
# U937 cells = assay: MTT cell growth inhibition; format: cell-based, human; details: 72 hours
# Excerpt: as §4, §1
# Daudi cells = assay: MTT cell growth inhibition; format: cell-based, human; details: 72 hours
# Excerpt: as §4, §1
# Raji cells = assay: MTT cell growth inhibition; format: cell-based, human; details: 72 hours
# Excerpt: as §4, §1
# NB4/R1 cells = assay: MTT cell growth inhibition; format: cell-based, human; details: 72 hours
# Excerpt: as §4, §1
# [4] = test system: human malignant hematopoietic cell; assay: MTT cell growth inhibition, whole panel; format: cell-based; details: all cell lines tested
# Excerpt: as §4, with “The survival rate of cells was accessed using trypan blue dye-exclusion experiments. Cell observations were done by using the Wright's staining method.” left out
# as §1
# NF-κB [5] = assay: NF-κB luciferase report assay in Kasumi-1 cells; format: cell-based, human; details: pre-treatment with EriB for one hour, then TNF-α four hours
# Description: as §5
# NF-κB (P65) = assay: Immunofluorescence of P65 nuclear translocation in Kasumi-1 cells; format: cell-based, human; details: pretreatment with EriB for one hour, 100 ng/ml TNF-α four hours
# Description: (VI) Immunofluorescence: the cells were fixed in methanol for five minutes at −20° C., after being washed with PBS, treated by 0.5% Triton-X-permeability, blocked with 1% BSA, and incubated with anti-P65 antibody at room temperature for one hour; after being washed again with PBS and incubated with the fluorescent-label IgG at room temperature for 30 minutes. The cells were incubated with Hochest 33258 for five minutes later, and observations were proceeded under the fluorescent microscope.
# Kasumi-1 cells [6] = assay: Mitochondrial transmembrane potential (Rh123 flow cytometry); format: cell-based, human
# Description: as §6
# Kasumi-1 cells [7] = assay: Kasumi-1 xenograft tumor model in nude mice; format: in vivo; details: EriB 2.5 mg/kg intraperitoneal, day 10 to day 19; P<0.05
# Description: Another xenograft tumor model was established through subcutaneous injection in nude mice of 3×10^7 Kasumi-1 cells (day 0). The incubation period of tumor formation at the site of injection was about 8-12 days. Beginning from day 10, the mice were treated with EriB (2.5 mg/kg) by intraperitoneal injection only until day 19.
# ERK1/2 = assay: Western blot of phosphorylated ERK1/2 in Kasumi-1 cells; format: cell-based, human; details: EriB 12 and 24 hours
# Description: as §2
# Kasumi-1 cells [8] = assay: Annexin V-FITC/PI apoptosis flow cytometry; format: cell-based, human; details: 0.5 μM EriB
# Description: as §6
# Kasumi-1 cells [9] = assay: Cell cycle analysis (nuclear DNA content, PI); format: cell-based, human; details: 0.25 μM EriB for 6, 12, 24 and 48 hours
# Description: as §6
# Kasumi-1 cells [10] = assay: Differentiation associated antigen expression; format: cell-based, human; details: 0.1 and 0.25 μM EriB for seven days
# [11] = test system: primary leukemia cells from patients with t(8;21); assay: Growth inhibition of primary leukemia cells (trypan blue exclusion); format: cell-based, human; details: 0.1 and 0.25 μM EriB, all five patients
# Excerpt: as §4
# NF-κB [12] = assay: Gel electrophoresis shift assay (EMSA) of NF-κB DNA binding; format: cell-based, human; details: EriB added one hour before TNF-α
# Description: (XI) Gel electrophoresis shift assay: nucleoprotein extracts of Kasumi-1 cells were quantitatively determined by using Coomassie plus reagent (Pierce). Nucleoprotein (10 μg) and ^32P marked double-stranded NF-κB (5′-[…]-3′) were sequentially incubated, and then […] using 4% of non-denaturing PAGE gel; the marked bands were detected by using autoradiography.
# Bcl-2 = assay: Western blot and RT-PCR of Bcl-2 in Kasumi-1 cells; format: cell-based, human; details: EriB 24 and 48 hours
# Description: as §2, §3
# Bax = assay: Western blot and RT-PCR of Bax in Kasumi-1 cells; format: cell-based, human; details: EriB 24 and 48 hours
# Description: as §2, §3
smiles,measurement,setting,value
"C=C1C(=O)[C@]23C[C@H]1CC[C@H]2[C@@]12CO[C@]3(O)[C@@H](O)[C@@H]1C(C)(C)C=CC2=O [EriB, Eriocalyxin B]",IC50,HL60 cells,1000 nM
same,Bcl-XL protein and mRNA levels,Bcl-XL,have decreased
same,cell death,Kasumi-1 cells [1]; 0.25 μM EriB,42.7±6.5%
same,cell death,Kasumi-1 cells [1]; 0.75 μM EriB,90.5±4.3%
same,AP-1 luciferase activity increase,AP-1,about three
same,AML1-ETO fusion protein level,AML1-ETO fusion protein,AML1-ETO degradation
same,caspase-3 activation,caspase-3,activated
same,cell level of ROS compared with untreated cells,Kasumi-1 cells [2]; 0.5 μM EriB alone for 2 hours,about two
same,median survival time,[3]; EriB 1.25 mg/kg intraperitoneal for two weeks,28 days
same,median survival time,[3]; EriB 2.5 mg/kg intraperitoneal for two weeks,32 days
same,spleen size versus untreated mice,"[3]; EriB intraperitoneal, 20 days",obviously smaller
same,IC50,NB4/R2 cells,< 1000 nM and 500 nM
same,IC50,Jurkat cells,> 1500 nM
same,IC50,NB4 cells,< 1000 nM and 500 nM
same,IC50,U937 cells,1000 nM
same,IC50,Daudi cells,> 1500 nM
same,IC50,Raji cells,> 1500 nM
same,IC50,NB4/R1 cells,< 1000 nM and 1000 nM
same,concentration that inhibits the growth of the cells,[4],0.2 to 2 µM
same,base luciferase activity and TNF-α-induced NF-κB activity,NF-κB [5],have been blocked
same,TNF-α-induced P65 translocation into nucleus,NF-κB (P65),significantly prevent
same,mitochondrial transmembrane potential,"Kasumi-1 cells [6]; EriB 24 and 48 hours, time and dose dependent",decreased significantly
same,tumor size versus control group,Kasumi-1 cells [7],significantly reduce tumor size
same,ERK1/2 phosphorylation level,ERK1/2,rapidly decreased
same,annexin V-positive cells proportion,Kasumi-1 cells [8]; 48 hours,88.6%
same,proportion of sub-G1 cells,Kasumi-1 cells [9],higher proportion of sub-G1
same,"induction of differentiation (CD11b, CD13, CD14, CD33, CD34, CD64)",Kasumi-1 cells [10],did not induce differentiation
same,cell inhibition,[11],more than 60%
same,"NF-κB activation (DNA binding, EMSA)",NF-κB [12],can block NF-κB activation
same,Bcl-2 protein and mRNA levels,Bcl-2,have decreased
same,Bax expression,Bax,have not changed significantly
"COC(=O)CC[C@H](NC(=O)[C@H](CC(=O)OC)NC(=O)OCc1ccccc1)C(=O)N[C@H](C(=O)N[C@@H](CC(=O)OC)C(=O)CF)C(C)C [Z-DEVD-fmk, reference compound]",effect on rate of EriB-induced apoptosis (annexin V positive cell proportion),Kasumi-1 cells [8]; 40 μM Z-DEVD-fmk pre-treatment one hour,only partially reduced
"O[C@H](CS)[C@H](O)CS (racemic) [DTT, dithiothreitol, reference compound]",ROS level,Kasumi-1 cells [2]; 0.2 mM DTT and EriB jointly incubated,has not changed
same,effect on EriB-induced apoptosis (Rh123),Kasumi-1 cells [6]; 0.2 mM DTT with 0.5 μM EriB,completely inhibit
